{
  "source": "patent US11834717B2",
  "about": "“Biomarkers for cancer diagnosis, prediction or staging” (Universite du Luxembourg, priority 2017, dated 2023)",
  "tested_on": "MYO5B expression in CRC cell lines",
  "assay": "MYO5B expression in CRC cell lines after 5-aza-dC (DAC) treatment, RT-qPCR",
  "assay_type": "cell-based",
  "details": "colon cancer (CRC) cell lines, 5 μM for four days vs vehicle (DMSO), 2-4 independent experiments, FIG. 3A",
  "protocol": "All CRC cell lines were obtained from the American Type Culture Collection (ATCC, Rockville, USA) and maintained in recommended culture conditions. For methylation analysis, cells were treated with 5 μM 5-Aza-2′-Deoxycytidine (5-aza-dC/DAC, Sigma) or vehicle (DMSO) for four days followed by RNA extraction.\nPCR conditions were used as previously described (Letellier et al, 2014) and the expression levels of the gene of interest were normalized against the housekeeping gene HPRT (Erickson et al, 2009). For bulk tissue and CRC cell lines, the RNA was extracted with the Mirneasy kit from Qiagen and the cDNA was obtained with the mirscript II (Qiagen). PCR cycling conditions as well as quality control and normalization steps were done in qBase+ (Biogazelle), using 2 reference genes as previously described (Qureshi-Baig et al, 2016; Ullmann et a, 2016).\nOver the last years, hypermethylation of tumor suppressor genes has been reported in different cancer types (Biswas & Rao, 2017). In a similar manner, MYO5B is methylated in both gastric tumors (Dong et al, 2013) and leukemias (Kuang et al, 2008). Thus, it was analyzed whether promoter methylation could explain the observed down-regulation of MYO5B in CRC. To this end, the expression of MYO5B in CRC cell lines was investigated first after treatment with 5-Aza-2′-Deoxycytidine (5-aza-dC/DAC), a known demethylating agent.",
  "data": [
    {"compound": "Nc1ncn([C@H]2C[C@H](O)[C@@H](CO)O2)c(=O)n1", "note": "[DAC, 5-Aza-2′-Deoxycytidine]", "values": [
      {"measurement": "change of MYO5B basal expression levels after DAC treatment", "value": "minor changes"},
      {"measurement": "change of MYO5B basal expression levels after DAC treatment", "setting": "listed as 5-aza-dC", "value": "does not increase"}
    ]}
  ]
}
